According to PMC11032350, “SMS121, a new inhibitor of CD36, impairs fatty acid uptake and viability of acute myeloid leukemia” (Scientific Reports, 2024):

Target: T1, CD36 (Homo sapiens, UniProt P16671)
T1 construct: commercial biotinylated His, Avitag human CD36, captured on streptavidin CAP chip
Assay: SPR (Biacore […]), steady-state […] fit
Type: binding

T1 sequence (P16671 30-439 limits assumed): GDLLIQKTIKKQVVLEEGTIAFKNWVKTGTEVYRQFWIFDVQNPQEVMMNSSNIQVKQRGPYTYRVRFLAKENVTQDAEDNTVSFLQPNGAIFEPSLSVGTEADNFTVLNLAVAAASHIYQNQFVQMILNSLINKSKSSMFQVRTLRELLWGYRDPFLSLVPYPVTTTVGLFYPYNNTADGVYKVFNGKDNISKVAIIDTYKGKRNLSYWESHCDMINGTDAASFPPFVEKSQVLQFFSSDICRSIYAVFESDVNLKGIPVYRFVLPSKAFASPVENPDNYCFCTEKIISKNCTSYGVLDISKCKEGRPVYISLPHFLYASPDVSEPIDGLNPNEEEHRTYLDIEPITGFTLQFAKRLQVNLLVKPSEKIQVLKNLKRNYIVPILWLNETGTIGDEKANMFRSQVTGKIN

Kd: ~5 µM
Structure (SMILES): COc1cc(/C=C/C(=O)c2ccc(N(C)C)cc2)ccc1OCC(=O)O [SMS121, (E)-2-(4-(3-(4-(dimethylamino)phenyl)-3-oxoprop-1-en-1-yl)-2-methoxyphenoxy) acetic acid]
